# Experimental data reported in PubChem BioAssay (NCI).
#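 Compound exposure: 48 hours, 5 concentrations, 96-well plates. GI50 is the concentration that inhibits growth by half. TGI marks complete inhibition of growth.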
# How the values were obtained:
# Assay in all cases: NCI-60 cell line screen, 48 h
# [1] = system: HCT-116 colon
# [2] = system: 786-0 renal
# [3] = system: M14 melanoma
# [4] = system: OVCAR-8 ovarian
# [5] = system: RXF 393 renal
# [6] = system: HCC-2998 colon
# [7] = system: CCRF-CEM leukemia
# [8] = system: MALME-3M melanoma
# [9] = system: NCI-H522 lung
# [10] = system: MOLT-4 leukemia
# [11] = system: SNB-19 CNS
# [12] = system: HS 578T breast
# [13] = system: HOP-62 NSCLC
# [14] = system: LOX IMVI melanoma
# [15] = system: UACC-257 melanoma
# [16] = system: A549 NSCLC
# [17] = system: SF-539 CNS
# [18] = system: T-47D breast
# [19] = system: NCI-H226 lung
# [20] = system: K-562 leukemia
# [21] = system: SN12C renal
# [22] = system: COLO 205 colon
# [23] = system: MDA-MB-231 breast
# [24] = system: MDA-MB-435
# [25] = system: NCI/ADR-RES ovarian
# [26] = system: PC-3 prostate
# [27] = system: OVCAR-4 ovarian
# [28] = system: OVCAR-5 ovarian
# [29] = system: SK-MEL-28 melanoma
# [30] = system: UACC-62 melanoma
# [31] = system: MCF7 breast
# [32] = system: HT29 colon
# [33] = system: CAKI-1 renal
# [34] = system: RPMI-8226 leukemia
# [35] = system: DU-145 prostate
# [36] = system: SNB-75 CNS
# [37] = system: IGROV1 ovarian
# [38] = system: TK-10 renal
# [39] = system: A498 renal
# [40] = system: U251 CNS
# [41] = system: ACHN renal
# [42] = system: NCI-H23 lung
# [43] = system: KM12 colon
# [44] = system: OVCAR-3 ovarian
# [45] = system: SW-620 colon
# [46] = system: EKVX NSCLC
# [47] = system: HCT-15 colon
# [48] = system: NCI-H460 lung
# [49] = system: SF-268 CNS
# [50] = system: SK-MEL-2 melanoma
# [51] = system: BT-549 breast
# [52] = system: HOP-92 NSCLC
# [53] = system: SR leukemia
# [54] = system: HL-60(TB) leukemia
# [55] = system: SK-MEL-5 melanoma
# [56] = system: SK-OV-3 ovarian
# [57] = system: UO-31 renal
# [58] = system: SF-295 CNS
structure (smiles),measurement,setting,value
C[C@H]1[C@H](C)CC[C@]2(C(=O)O)CC[C@]3(C)C(=CC[C@@H]4[C@@]5(C)CC[C@H](OC(=O)/C=C/c6ccc(O)cc6)C(C)(C)[C@@H]5CC[C@]43C)[C@H]12,GI50,[1],3.09 µM
same,TGI,[1],7.93 µM
same,GI50,[2],3.57 µM
same,TGI,[2],9.53 µM
same,GI50,[3],4.13 µM
same,TGI,[3],12.5 µM
same,GI50,[4],2.8 µM
same,TGI,[4],18.3 µM
same,GI50,[5],1.83 µM
same,TGI,[5],5.42 µM
same,GI50,[6],7.37 µM
same,TGI,[6],21.9 µM
same,GI50,[7],5 µM
same,TGI,[7],> 40.4 µM
same,GI50,[8],1.9 µM
same,TGI,[8],20 µM
same,GI50,[9],9.45 µM
same,TGI,[9],23 µM
same,GI50,[10],4.42 µM
same,TGI,[10],49.7 µM
same,GI50,[11],2.44 µM
same,TGI,[11],22.9 µM
same,GI50,[12],2.81 µM
same,TGI,[12],8.8 µM
same,GI50,[13],3.63 µM
same,TGI,[13],7.03 µM
same,GI50,[14],4.73 µM
same,TGI,[14],16.6 µM
same,GI50,[15],12.1 µM
same,TGI,[15],51.5 µM
same,GI50,[16],2.37 µM
same,TGI,[16],12.7 µM
same,GI50,[17],3.8 µM
same,TGI,[17],10.2 µM
same,GI50,[18],13.3 µM
same,TGI,[18],> 60.1 µM
same,GI50,[19],15.1 µM
same,TGI,[19],29.2 µM
same,GI50,[20],7.14 µM
same,TGI,[20],47.2 µM
same,GI50,[21],2.15 µM
same,TGI,[21],5.65 µM
same,GI50,[22],4.12 µM
same,TGI,[22],> 50.3 µM
same,GI50,[23],5.1 µM
same,TGI,[23],18.3 µM
same,GI50,[24],6.38 µM
same,TGI,[24],19.7 µM
same,GI50,[25],10.9 µM
same,TGI,[25],26.1 µM
same,GI50,[26],6.94 µM
same,TGI,[26],24.6 µM
same,GI50,[27],9.42 µM
same,TGI,[27],38.1 µM
same,GI50,[28],5.27 µM
same,TGI,[28],12.7 µM
same,GI50,[29],19.1 µM
same,TGI,[29],> 74.5 µM
same,GI50,[30],15.1 µM
same,TGI,[30],31.6 µM
same,GI50,[31],3.02 µM
same,TGI,[31],34.4 µM
same,GI50,[32],18.8 µM
same,TGI,[32],> 100 µM
same,GI50,[33],3.13 µM
same,TGI,[33],16.3 µM
same,GI50,[34],5.49 µM
same,TGI,[34],48.5 µM
same,GI50,[35],2.32 µM
same,TGI,[35],13 µM
same,GI50,[36],4.82 µM
same,TGI,[36],28.9 µM
same,GI50,[37],8.39 µM
same,TGI,[37],45.8 µM
same,GI50,[38],3.01 µM
same,TGI,[38],17.5 µM
same,GI50,[39],21.1 µM
same,TGI,[39],37.9 µM
same,GI50,[40],6.54 µM
same,TGI,[40],17.2 µM
same,GI50,[41],5.05 µM
same,TGI,[41],9.12 µM
same,GI50,[42],3.11 µM
same,TGI,[42],8.36 µM
same,GI50,[43],1.09 µM
same,TGI,[43],9.97 µM
same,GI50,[44],12.5 µM
same,TGI,[44],39.2 µM
same,GI50,[45],9.2 µM
same,TGI,[45],32.4 µM
same,GI50,[46],3.88 µM
same,TGI,[46],18.6 µM
same,GI50,[47],10.9 µM
same,TGI,[47],33 µM
same,GI50,[48],7.08 µM
same,TGI,[48],> 65.9 µM
same,GI50,[49],3.23 µM
same,TGI,[49],12 µM
same,GI50,[50],13.5 µM
same,TGI,[50],50.1 µM
same,GI50,[51],5.11 µM
same,TGI,[51],13.4 µM
same,GI50,[52],16.6 µM
same,TGI,[52],37.2 µM
same,GI50,[53],3.77 µM
same,TGI,[53],24.2 µM
same,GI50,[54],6.53 µM
same,TGI,[54],34.3 µM
same,GI50,[55],4.91 µM
same,TGI,[55],14.9 µM
same,GI50,[56],5.25 µM
same,TGI,[56],20.3 µM
same,GI50,[57],3.59 µM
same,TGI,[57],29.8 µM
same,GI50,[58],2.27 µM
same,TGI,[58],7.04 µM
CC1(C)CC(OCCCC[P+](c2ccccc2)(c2ccccc2)c2ccccc2)CC(C)(C)N1O,GI50,[1],0.238 µM
same,TGI,[1],3.61 µM
same,GI50,[2],0.738 µM
same,TGI,[2],2.23 µM
same,GI50,[3],0.433 µM
same,TGI,[3],1.9 µM
same,GI50,[4],0.333 µM
same,TGI,[4],2.61 µM
same,GI50,[5],0.518 µM
same,TGI,[5],2.08 µM
same,GI50,[6],0.287 µM
same,TGI,[6],3.19 µM
same,GI50,[7],0.246 µM
same,TGI,[7],1.52 µM
same,GI50,[8],0.317 µM
same,TGI,[8],1.07 µM
same,GI50,[9],0.275 µM
same,TGI,[9],1.16 µM
same,GI50,[10],0.34 µM
same,TGI,[10],4.12 µM
same,GI50,[11],0.317 µM
same,TGI,[11],2.2 µM
same,GI50,[12],0.229 µM
same,TGI,[12],1.03 µM
same,GI50,[13],0.44 µM
same,TGI,[13],2.1 µM
same,GI50,[14],0.317 µM
same,TGI,[14],1.25 µM
same,GI50,[15],0.307 µM
same,TGI,[15],0.977 µM
same,GI50,[16],0.37 µM
same,TGI,[16],11.5 µM
same,GI50,[17],0.327 µM
same,TGI,[17],10.2 µM
same,GI50,[18],0.143 µM
same,TGI,[18],1.23 µM
same,GI50,[19],0.472 µM
same,TGI,[19],10.6 µM
same,GI50,[20],0.186 µM
same,TGI,[20],18.1 µM
same,GI50,[21],0.306 µM
same,TGI,[21],1.18 µM
same,GI50,[22],0.202 µM
same,TGI,[22],0.402 µM
same,GI50,[23],0.252 µM
same,TGI,[23],0.832 µM
same,GI50,[24],0.301 µM
same,TGI,[24],1.15 µM
same,GI50,[25],5.56 µM
same,TGI,[25],21.5 µM
same,GI50,[26],0.205 µM
same,TGI,[26],4.04 µM
same,GI50,[27],0.32 µM
same,TGI,[27],4.32 µM
same,GI50,[28],0.481 µM
same,TGI,[28],8.42 µM
same,GI50,[29],0.628 µM
same,TGI,[29],2.02 µM
same,GI50,[30],0.392 µM
same,TGI,[30],1.64 µM
same,GI50,[31],0.203 µM
same,TGI,[31],1.2 µM
same,GI50,[32],0.34 µM
same,TGI,[32],7.26 µM
same,GI50,[33],1.19 µM
same,TGI,[33],4.01 µM
same,GI50,[34],0.019 µM
same,TGI,[34],0.133 µM
same,GI50,[35],0.409 µM
same,TGI,[35],7.75 µM
same,GI50,[36],0.331 µM
same,TGI,[36],3.61 µM
same,GI50,[37],0.477 µM
same,TGI,[37],2.02 µM
same,GI50,[38],0.361 µM
same,TGI,[38],2.36 µM
same,GI50,[39],0.644 µM
same,TGI,[39],3.89 µM
same,GI50,[40],0.247 µM
same,TGI,[40],1.54 µM
same,GI50,[41],2.39 µM
same,TGI,[41],7.28 µM
same,GI50,[42],0.254 µM
same,TGI,[42],1.95 µM
same,GI50,[43],0.284 µM
same,TGI,[43],0.966 µM
same,GI50,[44],0.241 µM
same,TGI,[44],0.871 µM
same,GI50,[45],0.337 µM
same,TGI,[45],4.86 µM
same,GI50,[46],0.256 µM
same,TGI,[46],4.37 µM
same,GI50,[47],2.78 µM
same,TGI,[47],9.12 µM
same,GI50,[48],0.282 µM
same,TGI,[48],1.52 µM
same,GI50,[49],0.412 µM
same,TGI,[49],1.88 µM
same,GI50,[50],0.272 µM
same,TGI,[50],0.641 µM
same,GI50,[51],0.274 µM
same,TGI,[51],1.04 µM
same,GI50,[52],0.199 µM
same,TGI,[52],0.903 µM
same,GI50,[53],0.273 µM
same,TGI,[53],1.54 µM
same,GI50,[54],0.125 µM
same,TGI,[54],0.421 µM
same,GI50,[55],0.163 µM
same,TGI,[55],0.358 µM
same,GI50,[56],0.302 µM
same,TGI,[56],0.787 µM
same,GI50,[57],2.66 µM
same,TGI,[57],8.29 µM
same,GI50,[58],0.337 µM
same,TGI,[58],1.39 µM
